Assay results from PMC8427023, “Bithiazole Inhibitors of Phosphatidylinositol 4‐Kinase (PI4KIIIβ) as Broad‐Spectrum Antivirals Blocking the Replication of SARS‐CoV‐2, Zika Virus, and Human Rhinoviruses” (Chemmedchem, 2021).
In brackets after ≈: the same amount, converted by molar mass. Where two headings read alike, the source gives them in different places. Marks after values point to notes of the source that are not given here.

Assays:
[1] = Stability in medium/serum solution; format: in vitro ADME; conditions: EMEM, 2 mM L-glut, 1 % FBS, 1 % Pen/Strep, 37 °C
in vitro [2] = conditions: human
in vitro [3] = format: in vitro ADME; conditions: PAMPA, pH 7.4; for Membrane Retention (% MR): 5 h, 500 μM
Procedure: (§1) appropriate calibration curve. For each compound, the determination was performed in three […]
(§2) Parallel Artificial Membrane Permeability Assay (PAMPA)
(§3) Each ‘donor solution’ was prepared from a solution of each compound (DMSO, 1 mM) diluted with 25 mM Phosphate Buffered Saline (PBS) at pH 7.4, up to a final concentration of 500 μM. The donor wells were filled with 150 µL of ‘donor solution’. The filters were coated with 5 μL of a solution of phosphatidylcholine in dodecane 1% (w/v) and the lower wells filled with 300 µL of ‘acceptor solution’ (50% v/v DMSO and PBS). The sandwich plate was assembled and incubated for 5 hours at room temperature under gentle shaking. At the end of the incubation time, the sandwich was disassembled and the amount of compound in the donor and acceptor wells was measured by LC-UV-MS. For each compound, the determination was performed in three independent experiments.
Apparent permeability (Papp) and membrane retention (%MR) were calculated according to the equations reported in reference. […]

[4] = Stability in medium/serum solution; format: in vitro ADME; conditions: EMEM, 2 mM L-glut, 1 % FBS, 1 % Pen/Strep, 37 °C; remark: listed apart in the source
Procedure: as §1, §2, §3
Apparent permeability (Papp) and membrane retention (%MR) were calculated according to the equations reported in reference.
(§4) Stability in Human Plasma
(§5) Pooled human plasma (1.5 mL, […]), PBS (1.4 mL, pH 7.4, 25 mM) and tested compound dissolved in DMSO (100 µL, 3.0 mM) were mixed in a test tube that was incubated at 37 […]
mixed with 600 µL of cold acetonitrile and centrifuged at 5000 rpm for 15 min [3]. The supernatant was removed and analyzed by LC-UV-MS. For each compound, the determination was performed in three independent experiments.
Stability in Medium/Serum solution
The stability of compounds under the experimental conditions used in the ENTRY-DYRA antiviral assay was evaluated. Each tested compound dissolved din DMSO (1.0 mL, 400 µM) was mixed in a test tube with EMEM, 2 mM L-glut, 1% FBS, 1% Pen/Strep solution (final concentration of the compound of 200 µM) and then incubated at 37 °C. At set time points (0.0, 0.08, 0.25, 0.50, 1.0, 3.0, and 24.0 h), samples of 100 µL were taken, mixed with 400 µL of cold acetonitrile and centrifuged at 5000 rpm for 15 min. The supernatant was removed and analyzed by UV/LC-MS. For each compound, the determination was performed in three independent experiments.

in vitro [5] = conditions: human; remark: listed apart in the source
in vitro [6] = conditions: human; remark: listed apart in the source
[7] = Cytotoxicity assay (CellTiter-Glo 2.0) in Calu-3 cells; format: cell-based; conditions: human, half-maximal cytotoxic concentration, read-out: SARS-CoV-2 Calu-3 CC50
PI4KIIIβ = biological target: T1, PI4KIIIβ (Homo sapiens, UniProt Q9UBF8); experiment: In vitro kinase inhibition assay, PI4KIIIβ; format: biochemical; conditions: mean of at least three independent experiments; 20 μM ATP
T1 construct: Recombinant full length, HIS6 -tagged PI4KIIIβ was purchased from ProQinase; His6; purchased ProQinase (Germany)
T1 sequence (Q9UBF8 whole entry): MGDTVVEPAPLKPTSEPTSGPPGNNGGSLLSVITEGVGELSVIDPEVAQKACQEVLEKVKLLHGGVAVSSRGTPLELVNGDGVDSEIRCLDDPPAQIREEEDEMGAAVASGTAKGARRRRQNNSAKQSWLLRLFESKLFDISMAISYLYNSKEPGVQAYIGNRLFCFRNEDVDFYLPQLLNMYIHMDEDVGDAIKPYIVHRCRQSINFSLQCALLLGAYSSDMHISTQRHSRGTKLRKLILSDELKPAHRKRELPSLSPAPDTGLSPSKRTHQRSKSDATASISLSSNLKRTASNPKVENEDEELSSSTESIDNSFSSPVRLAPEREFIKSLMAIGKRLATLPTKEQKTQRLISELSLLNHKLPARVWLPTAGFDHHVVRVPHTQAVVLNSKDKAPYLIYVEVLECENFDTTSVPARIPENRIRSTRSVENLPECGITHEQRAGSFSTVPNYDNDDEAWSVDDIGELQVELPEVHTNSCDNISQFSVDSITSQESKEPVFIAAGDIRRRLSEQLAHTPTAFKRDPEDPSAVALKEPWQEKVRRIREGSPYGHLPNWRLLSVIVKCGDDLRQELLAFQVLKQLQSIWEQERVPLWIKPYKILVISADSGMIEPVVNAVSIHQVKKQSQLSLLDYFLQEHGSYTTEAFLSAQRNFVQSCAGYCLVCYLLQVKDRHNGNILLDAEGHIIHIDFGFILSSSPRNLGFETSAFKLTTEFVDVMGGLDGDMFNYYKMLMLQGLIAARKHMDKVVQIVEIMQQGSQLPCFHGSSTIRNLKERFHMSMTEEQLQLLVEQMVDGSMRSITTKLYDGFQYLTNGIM

hRV2 [8] = experiment: Multicycle CPE reduction antiviral assay, hRV2 in HeLa cells; format: cell-based, human rhinovirus 2; conditions: 3 days
[9] = format: in vitro ADME; conditions: human, 24 h, 100 µM, pH 7.4
Procedure: appropriate calibration curve. […]
as §4, §5
mixed with 600 µL of cold acetonitrile and centrifuged at 5000 rpm for 15 min [3]. The supernatant was removed and analyzed by LC-UV-MS. For each compound, the determination was performed in three independent experiments. […]

hRV14 [10] = experiment: Multicycle CPE reduction antiviral assay, hRV14 in HeLa cells; format: cell-based, human rhinovirus 14; conditions: 3 days
ZIKV = experiment: Direct yield reduction assay (DYRA), ZIKV in Huh7 cells; format: cell-based, Zika virus; conditions: for IC50: Zika virus, read-out: ZIKV Huh7 IC50
physchem = format: physicochemical; conditions: pH 7.4, aqueous buffer
SARS-CoV-2 [11] = experiment: ENTRY-DYRA (entry inhibitor protocol), SARS-CoV-2 in Calu-3 cells; format: cell-based
in vitro [12] = conditions: human; remark: listed apart in the source
SARS-CoV-2 [13] = experiment: microbe, parasite or virus in culture; format: cell-based; conditions: for IC50: read-out: SARS-CoV-2 Calu-3 IC50 (DYRA protocol)
HeLa = conditions: read-out: HeLa CC50; HeLa cells
[14] = Cytotoxicity assay (CellTiter-Glo 2.0) in Huh7 cells; conditions: human
coxsackievirus B3 (CVB3) = tested on: coxsackievirus B3 (CVB3); set-up: method as in PMID 28122178, PMID 31729878; conditions: at low micromolar concentration; cited from earlier work
Enterovirus-A71 (EV-A71) = tested on: Enterovirus-A71 (EV-A71); set-up: method as in PMID 28122178, PMID 31729878; conditions: at low micromolar concentration; cited from earlier work
hRV14 [15] = tested on: hRV14; set-up: method as in PMID 31729878; conditions: HeLa cells; cited from earlier work
hRV2 [16] = tested on: hRV2; set-up: method as in PMID 31729878; conditions: HeLa cells; cited from earlier work
[17] = pH 7.4; cited from earlier work
[18] = PAMPA; cited from earlier work
[19] = C57BL/6 mice, up to 180 mg/kg; cited from earlier work
[20] = Severe acute respiratory syndrome coronavirus 2, Calu-3 cells, 72 h incubation, ±SD, NA: Not active
[21] = Severe acute respiratory syndrome coronavirus 2, Calu-3, 72 h
[22] = Calu-3 cells treated 1 h before infection, compound and virus removed, 72 h incubation

Row | SMILES | Stability in Medium/Serum 48 h [1] [%] | CC50 at 3 days (in vitro [2]) [µM] | Membrane Retention (% MR) (in vitro [3]) [%] | Papp at 5 h, 500 μM (in vitro [3]) [×10⁻⁶ cm/s] | Stability in Medium/Serum 24 h [4] [%] | viability at 4 h, 50 µM (in vitro [5]) [%] | CC50 (in vitro [6]) [µM] | CC50 [7] [µM] | IC50 (PI4KIIIβ) [µM] | IC50 (hRV2 [8]; Rhinovirus A, HRV2, 72 h) [µM] | Plasma Stability [9] [%] | IC50 (hRV14 [10]; Rhinovirus B, HRV14, 72 h) [µM] | IC50 (ZIKV; Huh-7, Huh7 cells, DYRA, 72 h) [µM] | solubility (physchem) [µg/mL] | IC50 (SARS-CoV-2 [13]; [20]) [µM] | further results
1 | Cc1nc(NC(=O)C(C)(C)C)sc1-c1csc(NCC(O)CO)n1 (stereo not shown) [4 a] | 97.5 | > 30 | < 0.1 | 0.008 | 99.0 | 96 | > 200 | > 100 | 0.29 ± 0.08 | 1.77 ± 0.62 | 99.4 | 2.32 ± 1.54 | 46.5 ± 2.96 | 5.26 (≈ 14.2 µM) | – | –
2 | Cc1nc(NC(=O)C(C)(C)C)sc1-c1csc(N(CCO)CCO)n1 [4 b] | 84.9 | > 30 | 0.94 | 0.021 | 91.4 | 92.6 | 125 | > 100 | 0.24 ± 0.05 | 1.37 ± 1.31 | 90.2 | 2.07 ± 1.45 | 5 ± 1.2 | 0.28 (≈ 0.728 µM) | – | –
3 | Cc1nc(NC(=O)C(C)(C)C)sc1-c1csc(NCC(C)(C)O)n1 [4 c] | 67.3 | > 30 | < 0.1 | 0.323 | 77 | 98.3 | 37 | > 100 | 0.89 ± 0.2 | 0.39 ± 0.01 | 92.3 | 0.48 ± 0.14 | 0.83 ± 0.31 | 0.32 (≈ 0.868 µM) | – | –
4 | Cc1nc(NC(=O)C(C)(C)C)sc1-c1csc(N(CC(C)(C)O)C2CCCCC2)n1 [4 d] | 85.7 | 23.8 ± 1.7 | 18.05 | 11.7 | 93.3 | 94.8 | 4 | 17 | 1.97 ± 0.79 | 0.9 ± 0.72 | 92.4 | 1.4 ± 1.2 | 0.51 ± 0.05 | 0.01 (≈ 0.0222 µM) | 1.57 ± 0.38 | IC50 (SARS-CoV-2 [11]; Severe acute respiratory syndrome coronavirus 2, Calu-3 cells treated 1 h before infection, compound and virus removed, 72 h incubation, read-out: SARS-CoV-2 Calu-3 IC50 (ENTRY-DYRA conditions, in parenthesis) (converted)): 0.37 µM; viability (in vitro [12]): > 95%; selectivity index (SI) against SARS-CoV-2 under DYRA conditions (SARS-CoV-2 [13]; ratio between CC50 and IC50, Calu-3): 11; selectivity index (SI) against ZIKV (ZIKV; ratio between CC50 and IC50, Huh7): 8
5 | Cc1nc2c(NCc3cccc(S(C)(=O)=O)c3)nccn2c1-c1ccc(O)c(F)c1 [BF738735, reference compound] | – | – | – | – | – | – | – | – | – | – | – | – | – | – | – | CC50 (HeLa): > 30 µM; IC50 (hRV2 [8]): 0.39 ± 0.36 µM; IC50 (hRV14 [10]): 0.59 ± 0.28 µM
6 | CN(C)C(=O)COC(=O)Cc1ccc(OC(=O)c2ccc(NC(=N)N)cc2)cc1 [CMT, Camostat, reference compound] | – | – | – | – | – | – | – | 200 | – | – | – | – | – | – | – | IC50 (SARS-CoV-2 [11]; Severe acute respiratory syndrome coronavirus 2, Calu-3, read-out: SARS-CoV-2 Calu-3 IC50 (ENTRY-DYRA conditions, in parenthesis)): 0.04 µM; IC50 (SARS-CoV-2 [13]; [21]): 0.82 ± 0.32 µM
7 | CCC(CC)COC(=O)[C@H](C)N[P@](=O)(OC[C@H]1O[C@@](C#N)(c2ccc3c(N)ncnn23)[C@H](O)[C@@H]1O)Oc1ccccc1 [RMD, Remdesivir, reference compound] | – | – | – | – | – | – | – | 97 | – | – | – | – | – | – | 0.11 ± 0.04 | –
8 | CC(C)OC(=O)[C@H](C)N[P@](=O)(OC[C@H]1O[C@@H](n2ccc(=O)[nH]c2=O)[C@](C)(F)[C@@H]1O)Oc1ccccc1 [SOF, Sofosbuivir, reference compound] | – | – | – | – | – | – | – | – | – | – | – | – | – | – | – | CC50 [14]: 200 µM; IC50 (ZIKV; Huh-7, 72 h): 2.7 ± 0.5 µM
9 | Cc1nc(NC(=O)C(C)(C)C)sc1-c1csc(Nc2cccc(C(=O)O)c2)n1 [compound 1] | 93.1 | 36 | < 0.1 | 0.052 | 96.4 | 94.1 | 110 | 45 | – | – | 99.1 | – | – | 0.21 (≈ 0.504 µM) | – | SARS-CoV-2 Calu-3 IC50 (ENTRY-DYRA conditions, in parenthesis) (SARS-CoV-2 [11]; [22]): no effect on the entry phase; inhibition of CVB3 replication in infected cells (coxsackievirus B3 (CVB3)): inhibited; inhibition of EV-A71 replication in infected cells (Enterovirus-A71 (EV-A71)): inhibited; IC50 (hRV14 [15]): 15.3 µM; IC50 (SARS-CoV-2 [13]; [21]): 7.45 ± 2.47 µM; IC50 (ZIKV; Huh-7, 72 h): 13.8 ± 4.08 µM; IC50 (hRV2 [16]): 9.7 µM
10 | CC(=O)c1cccc(N(CCO)c2nc(-c3sc(NC(=O)C(C)(C)C)nc3C)cs2)c1 [compound 2] | 90.4 | 17 | < 0.1 | – | 98.5 | 94.5 | 16 | 40 | 2.1 ± 0.17 | – | – | – | 1 ± 0.1 | – | 3.95 ± 1.48 | SARS-CoV-2 Calu-3 IC50 (ENTRY-DYRA conditions, in parenthesis) (SARS-CoV-2 [11]; [22]): no effect on the entry phase; Aqueous Solubility [17]: 0.05* μg/mL; inhibition of CVB3 replication in infected cells (coxsackievirus B3 (CVB3)): inhibited; Papp [18]: 1,1 10^−6 cm/sec; inhibition of EV-A71 replication in infected cells (Enterovirus-A71 (EV-A71)): inhibited; tolerability, acute toxicity and histological alterations in key biodistribution organs [19]: well tolerated; IC50 (hRV14 [15]): > 9.1 µM; IC50 (hRV2 [16]): 6.1 µM
